Assay results as given in patent US20090203778A1, “FATTY ACID ANALOGUES, I.E. INCLUDING DHA DERIVATIVES FOR USES AS A MEDICAMENT” (priority 2005, published 2009).

Key:
[1] = Analysis of intracellular free (non-esterified) fatty acids in liver of animals fed PRB-1; assay type: in vivo, mice; conditions: liver tissue, 1.5% of the fat content in diet for 8 weeks
Experimental: Liver tissue from animals fed PRB-1 was analysed with respect to free unesterified fatty acids. The animals were recruited from Experiment 4 (pharmacodynamic effects of DHA derivatives in an animal model of metabolic syndrome). The animals had been given DHA (15% of fat content of the diet) or the DHA-derivative (1.5% of the fat content in their diet) for 8 weeks and were supposed to be in a steady-state situation with stable levels of DHA and the DHA-derivative intracellularly. Liver tissue was chosen due to the fact that the metabolisation rate is very high in liver.
The liver samples were homogenized in cold PBS buffer, and extracted immediately with chloroform:methanol (2:1) containing 0.2 mM butylated hydroxytoluene (BHT) using cis-10-heptadecenoic acid as internal standard. […] Total protein content was measured using Bio-Rad method after homogenization.
Agilent 1100 system was used for reverse phase column (Supelco Ascentis C18 column, 25 cm×4.6 mm, i.d. 5 μm) separation within 22 min. […] The column elute was identified and quantified in the negative electrospray ionisation applying multiple reaction monitoring mode by triple tandem quadrapole mass/mass (ABI Qtrap-4000). […] The quadratic regression standard curve was used for quantification after internal standard calibration.

PPARγ = target: T1, PPARγ (Homo sapiens, UniProt P37231); assay: Affinity testing in transfected cells (luciferase release); assay type: cell-based; conditions: 10 μM, FIG. 3
T1 construct: For full length PPAR transfection studies, each well received 5 μg reporter construct; expressed in transfected cells; host or cells: COS-1 cells (adipocytes transfected with pSG5-PPARγ are also described)
T1 sequence (P37231 1-505): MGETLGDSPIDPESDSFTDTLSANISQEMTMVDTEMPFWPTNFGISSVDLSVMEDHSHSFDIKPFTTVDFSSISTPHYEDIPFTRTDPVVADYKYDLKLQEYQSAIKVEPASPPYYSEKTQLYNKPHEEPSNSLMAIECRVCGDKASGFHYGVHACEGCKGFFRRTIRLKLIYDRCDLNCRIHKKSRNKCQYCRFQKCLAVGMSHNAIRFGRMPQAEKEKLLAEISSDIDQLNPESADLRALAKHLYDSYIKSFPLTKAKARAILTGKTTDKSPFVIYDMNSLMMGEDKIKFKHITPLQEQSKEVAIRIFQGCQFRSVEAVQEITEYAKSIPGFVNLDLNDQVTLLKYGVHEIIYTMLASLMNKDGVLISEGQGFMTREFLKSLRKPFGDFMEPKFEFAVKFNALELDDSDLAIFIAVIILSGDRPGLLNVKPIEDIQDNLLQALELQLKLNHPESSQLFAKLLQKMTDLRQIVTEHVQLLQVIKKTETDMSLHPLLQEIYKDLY
Experimental: Release of luciferase is correlated to transcription of genes. Binding of a ligand to a nuclear receptor such as PPARγ induces transcription of the respective gene thereby releasing luciferase. This technique therefore provides a measure of ligand affinity to the receptor as well as activation of the responsible gene.
Transient transfection of COS-1 cells was performed in 6-well plates as described by Graham and van der Eb (Graham). For full length PPAR transfection studies, each well received 5 μg reporter construct, 2.5 μg pSV-β-galactosidase as an internal control, 0.4 μg pSG5-PPARγ2. The cells were harvested after 72 h, and the luciferase activity was measured according to the protocol (Promega). The luciferase activity was normalised against β-galactosidase activity. The adipocytes were transfected at D11 of differentiation using 16 μL LipofectaminPlus reagent, 4 μl Lipofectamine (Life Technologies Inc.), 0.2 μg pSG5-PPARγ, and 100 ng pTK Renilla luciferase as control of transfection afficiency. […] The luciferase activities were measured as recommended by the manufacturer (Dual Luciferase assay, Promega). […]
Fatty acids (BRL or DHA) and PRB-1 (stock solutions) were solubilized to 0.1 M final concentration in DMSO. […] Luciferase activity was measured using a luminometer (TD-20/20 luminometer; Turner Designs, Sunnycvale, Calif.) and normalized against protein content.

[2] = test system: adipose prone mice of the C57BL/6J strain; assay: Animal model of metabolic syndrome, adipose prone mice on high-fat diet, 4 months of dietary interventions; assay type: in vivo; conditions: for Body weight / NEFA / TAGs / Body wt. gain / Insulin: 4 months; for AUCglucose: intraperitoneal glucose tolerance test; for TAGs: serum; for Insulin: plasma
Experimental: An animal model of the metabolic syndrome using the adipose prone mice of the C57BL/6J strain was used to document effects on typical laboratory and pathological anatomical features common for the metabolic syndrome. When given a high fat diet containing about 60% of fat, the animals are getting obese developing high insulin plasma levels, pathological glucose tolerance test, elevated serum triglycerides and non-esterified fatty acids, and fat liver. All experiments were performed on male C57BL/6 mice, either a substrain C57BL/N (supplier: Charles River, Germany, n=160, experiments A-C, see below), or a substrain C57BL/6J (supplier: the Jackson laboratory, Bar Harbor, Me., USA, n=32, experiment D). Total numbers of animals used were higher (n=170 and 36, respectively), because of culling. In the latter case, animals were bred for several generations (<20) at the Institute of Physiology. At the beginning of the treatment, animals were 14-week-old and their body weight range was 23.6-27.1 g. One week before the study start, animals were sorted according to their body weight and assigned to subgroups (n=8) of similar mean body weight. […] The animals eliminated from the study at this stage were sacrificed by cervical dislocation. Complete health check of mice was performed by the supplier Charles River and at the start of study serological tests were performed by ANLAB (Prague, Czech Republic). In addition, regular health checks were performed in the animal house in 3-mo-intervals using sentinel mice and serological examinations (ANLAB). In all the tests, the animals were free of specific pathogens. […] All these compounds were in the form of ethyl esters, provided by Pronova Biocare a.s. in sealed containers. Chemical composition of the PRB-compounds was unknown to the laboratory performing the experiments (Institute of Physiology, Academy of Sciences Prague, Czech Republic). After arrival, the PRB-compound were stored in a refrigerator in original containers. The containers were opened just before preparation of the experimental diets. Diets were kept in plastic bags flushed by nitrogen and stored at −70° C. in small aliquots sufficient for feeding animals for one week. Fresh ratios were given in 2-day intervals or daily. The study was based on 4 individual experiments. […] In each experiment, a subgroup of plain cHF diet-fed mice was included and served as a control. Mice were caged in groups of 4 and fed standard chow diet until 3 mo of age, when animals (n=8-13) were randomly assigned to the different test diets. […] Animals were sacrificed after 4 months on the experimental diets, at 7 mo of age, and the end-point analysis were performed.

[3] = test system: liver steatosis in mice fed high fat diet; assay: Testing of DHA derivatives on liver fat (histology); assay type: in vivo; conditions: eosin-hematoxylin stained liver
Excerpt: Tissue samples from animals in the experiments with DHA derivatives was histologically analysed. After paraffination, tissue samples from liver, adipose tissue, skeletal muscle, pancreas, and kidney were stained with eosin-hematoxylin.

[4] = 0.15% of fat content of cHF diet
[5] = 0.5% of fat content of cHF diet
[6] = 1.5% of fat content of cHF diet

For `CC/C=C\C/C=C\C/C=C\C/C=C\C/C=C\C/C=C\CC(C)C(=O)OCC` (stereo not drawn) [PRB-1, α-methyl DHA EE], the “concentration of the DHA-derivative (free unesterified fatty acid) in the liver cells” value [1] was “about 10 μg per g of total amount of protein”, the “release of luciferase from transfected cells” value (PPARγ) was “high release of luciferase” and the Fasted glucose [2, 4] was 126 ± 15 mg/dL. The Body weight [2, 4] was 47.2 ± 1.3 grams, the NEFA [2, 4] was 0.62 ± 0.04 mmol/L and the AUCglucose [2, 4] was 1291 ± 172 mM × 180 min. It also gave a TAGs [2, 4] of 1.75 ± 0.08 mmol/L, a Fasted glucose [2, 5] of 131 ± 7 mg/dL and a Body weight [2, 5] of 47.4 ± 0.6 grams. For the same compound, the Body wt. gain [2, 5] was 23.8 ± 0.5 grams, the NEFA [2, 5] was 0.73 ± 0.04 mmol/L and the AUCglucose [2, 5] was 1596 ± 205 mM × 180 min. For the same compound, the Insulin [2, 5] was 3.93 ± 0.59 ng/mL, the TAGs [2, 5] was 2.03 ± 0.22 mmol/L and the Fasted glucose [2, 6] was 130 ± 14 mg/dL. The Body weight [2, 6] was 44.0 ± 1.5 grams, the Body wt. gain [2, 6] was 20.2 ± 1.3 grams and the NEFA [2, 6] was 0.63 ± 0.03 mmol/L. For the same compound, the TAGs [2, 6] was 1.58 ± 0.08 mmol/L and the “degree of fat liver (liver steatosis), histology” value [3] was “low degree of fat liver”.
In the case of `CC/C=C\C/C=C\C/C=C\C/C=C\C/C=C\C/C=C\CCC(=O)O` [DHA, (all-Z)-4,7,10,13,16,19-docosahexaenoic acid], the Fasted glucose [2, 4] is reported as 141 ± 10 mg/dL, the Body weight [2, 4] is reported as 48.3 ± 0.6 grams and the “Body wt. gain” value [2, 4] is reported as 24.3 ± 0.8 grams. The NEFA [2, 4] was 0.96 ± 0.07 mmol/L, the AUCglucose [2, 4] was 1477 ± 214 mM × 180 min and the Insulin [2, 4] was 4.31 ± 0.39 ng/mL. It also gave a TAGs [2, 4] of 1.50 ± 0.13 mmol/L, a Fasted glucose [2, 5] of 136 ± 8 mg/dL and a Body weight [2, 5] of 46.9 ± 0.7 grams. The Body wt. gain [2, 5] was 22.9 ± 0.7 grams, the NEFA [2, 5] was 0.89 ± 0.03 mmol/L and the AUCglucose [2, 5] was 1816 ± 182 mM × 180 min. It also gave an Insulin [2, 5] of 5.82 ± 0.47 ng/mL, a TAGs [2, 5] of 1.78 ± 0.08 mmol/L and a Fasted glucose [2, 6] of 138 ± 7 mg/dL. For the same compound, the Body weight [2, 6] was 47.1 ± 0.7 grams, the Body wt. gain [2, 6] was 23.0 ± 0.8 grams and the NEFA [2, 6] was 0.98 ± 0.07 mmol/L. It also gave an AUCglucose [2, 6] of 2132 ± 288 mM × 180 min, an Insulin [2, 6] of 6.55 ± 0.31 ng/mL and a TAGs [2, 6] of 1.91 ± 0.26 mmol/L.
